From patent publication US20210315886A1, “IMIDAZOTETRAZINE COMPOUNDS” (The Board of Trustees of the University of Illinois, priority 2018, published 2021)
Entries after “also recorded” stand apart in the source; their conditions may differ. Read-outs that look alike come from different tables or passages of the source.

Legend:
[1] = tested on: panel of human GBM cell lines; assay: Anticancer activity against panel of human GBM cell lines; assay type: cell-based; details: for anticancer activity in cell culture: across all cell lines / in culture; for activity relative to TMZ in MGMT-deficient cell lines: MGMT-deficient U87 and D54 cell lines; for IC50: Homo sapiens
Procedure: Anticancer activity of C8 substituted imidazotetrazines. With a suite of imidazotetrazines in hand, each compound was evaluated against a panel of human GBM cell lines (Table 1a, Table 1b).

[2] = Mouse liver microsome stability assay; assay type: in vitro ADME; details: for stability to mouse liver microsomes: 2 hours
Procedure: Mouse Liver Microsome Stability Assay. A mixture of PBS (pH 7.4), NADPH regenerating system solution A (Corning Life Sciences), and NADPH regenerating system solution B (Corning Life Sciences) was incubated at 37° C. in a shaking incubator for 5 min. Next, compound was added in DMSO (final concentration 50 μM, 0.5% DMSO) before ice-cold mouse liver microsomes (Thermo Fisher, male CD-1 mice, pooled) were added (final protein concentration of 1 mg/mL). An aliquot was immediately removed, quenched with an equal volume of 100 μM internal standard and 0.5% hydrochloric acid in ice-cold acetonitrile, and centrifuged at 13,000 rcf for 3 min. The supernatant was diluted 1:5 in ddH2O and analyzed by LC-MS. The reactions were incubated at 37° C. in a shaking incubator for 2 h. A second aliquot was removed, quenched and diluted as before and analyzed by LC-MS. The ratio of the areas of analyte: internal standard at 2 hours was compared to the ratio at t0 to determine the percentage of compound remaining. Analysis was performed on an Agilent 6230 LC/MS TOF system with a 1.8 μm, 2.1×50 mm Agilent ZORBAX Eclipse Plus C18 column.

[3] = tested on: GBM Br23c oncospheres intracranially implanted; assay: Intracranial mouse model of GBM (Br23c oncospheres); assay type: in vivo; details: for increase of median survival over TMZ: equimolar to 15 mg/kg TMZ, once-per-day, 5×/week for 7 weeks
Description: FIG. 5. Evaluation of imidazotetrazines in intracranial mouse models of GBM. GBM Br23c oncospheres were intracranially implanted into female athymic nude mice. Treatment was started 5 days post implantation. […] Compounds were formulated in 10% PEG in PBS immediately prior to each treatment. Number of mice per treatment cohort ≥5. Survival curves were compared using log-rank test.
in vivo Efficacy Models. Human GBM Br23c stem-like neurosphere cells were intracranially implanted in female athymic nude mice (150,000 cells/mouse). […] Mice were observed daily for any signs of deterioration, neurotoxicity, or movement disorders. They were inspected for signs of pain and distress, as in accordance with the Johns Hopkins Animal Care and Use Guidelines.

T98G cells = assay: Cytotoxicity in T98G cells with or without O6BG pre-treatment; assay type: cell-based, human
Procedure: FIG. 4. Imidazotetrazines were added to T98G cells with or without 3 h pre-treatment of O6BG (100 μM). IC50 values after 7-day incubation and fold changes between (+/−) O6BG treatments are reported. […] Error is SEM, n≥3. Statistical significance was determined by using a two-sample Student's t-test (two-tailed test, assuming equal variance).
After 8 hours of incubation with compound, the genomic DNA was isolated, quantified, and hydrolyzed to its constituent deoxyribonucleosides, which were quantitated via LC-MS/MS analysis. […] O6BG is a pseudosubstrate for MGMT that quenches cellular stores of the enzyme, leading to the persistence of O^6-methylguanine DNA adducts.

[4] = Hydrolytic stability in buffered saline (HPLC assay); assay type: physicochemical; details: aqueous solution, PBS at pH 7.4
Description: Hydrolytic stability of C8 substituted imidazotetrazines.

U87 cells = assay: Cell viability, Alamar Blue, 7 days, U87; assay type: cell-based; details: Homo sapiens, U-87 MG, 168 h, Table 1a, MGMT −
Description: Cell Culture and Reagents.

[5] = Assessment of hematological toxicity; assay type: in vivo; details: mice, single IV dose 125 mg/kg, blood counts after 7 days
Procedure: Assessment of hematological toxicity. […] Both lymphocyte (FIG. 3b) and neutrophil (FIG. 8a) concentrations were decreased in TMZ-treated mice. […] Total WBC, lymphocyte, and neutrophil counts for mice treated with these compounds were equivalent to those of control mice.
Assessment of Hematological Toxicity. Male CD-1 IGS mice (n=4 mice/group) were administered a single dose of 125 mg/kg compound intravenously. Imidazotetrazines were formulated with SBEβCD in sterile water immediately prior to injection. Seven days post-treatment, mice were humanely sacrificed and whole blood was collected for assessment of total white blood cells, lymphocytes, neutrophils, platelets, and red blood cells.

[6] = cited from earlier work

CNC(=O)c1ncn2c(=O)n(C)nnc12 [Compound 4, N,3-dimethyl-4-oxo-3,4-dihydroimidazo[5,1-d][1,2,3,5]tetrazine-8-carboxamide]
anticancer activity in cell culture [1]: retained activity in culture | stability to mouse liver microsomes [2]: some susceptibility to the effects of the microsomes | increase of median survival over TMZ ([3]; oral): 24%

CN(C)C(=O)c1ncn2c(=O)n(C)nnc12 [Compound 5, N,N,3-trimethyl-4-oxo-3,4-dihydroimidazo[5,1-d][1,2,3,5]tetrazine-8-carboxamide]
anticancer activity in cell culture [1]: retained activity in culture | stability to mouse liver microsomes [2]: some susceptibility to the effects of the microsomes | increase of median survival over TMZ ([3]; oral): 46% | Fold Change between (+/−) O6BG IC50 (T98G cells): 10

CCCCN(CCCC)C(=O)c1ncn2c(=O)n(C)nnc12 [Compound 7, N,N-dibutyl-3-methyl-4-oxo-3,4-dihydroimidazo[5,1-d][1,2,3,5]tetrazine-8-carboxamide]
Stability (2 h, Microsomes) ([2]; 2 h, percentage remaining relative to t0): 1 ± 1% | stability to mouse liver microsomes [2]: markedly less stability in liver microsomes

CCSC(=O)c1ncn2c(=O)n(C)nnc12 [Compound 10, S-ethyl 3-methyl-4-oxo-3,4-dihydroimidazo[5,1-d][1,2,3,5]tetrazine-8-carbothioate]
activity relative to TMZ in MGMT-deficient cell lines [1]: activity comparable to TMZ

Cc1ncn2c(=O)n(C)nnc12 [Compound 14, 3,8-dimethylimidazo[5,1-d][1,2,3,5]tetrazin-4(3H)-one]
activity relative to TMZ in MGMT-deficient cell lines [1]: as (or more) potent than TMZ | anticancer activity in cell culture [1]: most active across all cell lines | effect on survival in intracranial model ([3]; oral, 15 mg/kg TMZ or equimolar dose, 15 mg/kg): lack of in vivo efficacy | half-life [4]: > 20 h

CC(=O)c1ncn2c(=O)n(C)nnc12 [Compound 17, 8-acetyl-3-methylimidazo[5,1-d][1,2,3,5]tetrazin-4(3H)-one]
activity relative to TMZ in MGMT-deficient cell lines [1]: effective against MGMT-deficient cell lines | anticancer activity in cell culture [1]: retained activity in culture | potency compared to TMZ ([1]; in culture, despite shorter aqueous half-life): equipotent to TMZ | stability to mouse liver microsomes [2]: generally stable to oxidative metabolism | extension of median survival past TMZ-treated mice ([3]; oral gavage, 14.9 mg/kg once-per-day for 5 total doses): more than 50 days | IC50 (U87 cells): 44 ± 6 µM | myelosuppression / WBC toxicity ([5]; listed as K-TMZ, 125 mg/kg): did not produce myelosuppression; also recorded: significantly less in vivo toxicity to WBCs | Fold Change between (+/−) O6BG IC50 (T98G cells): 8

Cn1nnc2c(Cl)ncn2c1=O [Compound 19, 8-chloro-3-methylimidazo[5,1-d][1,2,3,5]tetrazin-4(3H)-one]
activity relative to TMZ in MGMT-deficient cell lines [1]: as (or more) potent than TMZ | anticancer activity in cell culture [1]: retained activity in culture | stability to mouse liver microsomes [2]: generally stable to oxidative metabolism

Cn1nnc2c(-c3ccccc3)ncn2c1=O [Compound 23, 3-methyl-8-phenylimidazo[5,1-d][1,2,3,5]tetrazin-4(3H)-one]
activity relative to TMZ in MGMT-deficient cell lines [1]: as (or more) potent than TMZ | anticancer activity in cell culture [1]: most active across all cell lines | half-life [4]: > 20 h

Cc1cnc(-c2ncn3c(=O)n(C)nnc23)o1 [Compound 27, 3-methyl-8-(5-methyloxazol-2-yl)imidazo[5,1-d][1,2,3,5]tetrazin-4(3H)-one]
activity relative to TMZ in MGMT-deficient cell lines [1]: as (or more) potent than TMZ | anticancer activity in cell culture [1]: retained activity in culture | Fold Change between (+/−) O6BG IC50 (T98G cells): 20

Cn1nnc2c(C(N)=O)ncn2c1=O [TMZ, temozolomide, reference compound]
IC50 ([1]; GBM cell lines with negligible MGMT expression, read-out: IC50 in cell lines with negligible MGMT expression): ≤ 50 µM | IC50 ([1]; GBM cell lines with significant MGMT expression, read-out: IC50 in cell lines with significant MGMT expression): > 300 µM | stability to mouse liver microsomes [2]: insensitive to metabolic perturbation | incidence of myelotoxicity ([6]; TMZ-treated patients): ~20% | half-life ([6]; in vivo, in humans (b7: also in aqueous solutions in vitro)): ~2 h | myelosuppression / WBC toxicity [5]: white blood cell (WBC) depletion
